Reference: patent US9918968B2, “Rapamycin analogs targeting proteasome function in the treatment of cancer” (THE BOARD OF REGENTS OF THE UNIVERSITY OF TEXAS SYSTEM, priority 2013, dated 2018)
Read-outs that look alike come from different tables or passages of the source.

Columns and labels:
[1] = tested on: transplanted tumor; settings: cited from earlier work; for proteasome inhibition in brain tissue: any time point
[2] = tested on: MM xenograft tumors (LAGκ-1A); settings: 14 d, cited from earlier work
[3] = tested on: LoVo colon cancer; settings: read-out: IC50, proliferation; cited from earlier work
[4] = tested on: RPMI8226 multiple myeloma cancer; settings: read-out: IC50, proliferation; cited from earlier work
[5] = biological target: chymotrypsin-like proteasome activity (Homo sapiens, UniProt P28074); settings: read-out: IC50, chymotrypsin-like proteasome inhibition; cited from earlier work
[6] = tested on: HS-Sultan anaplastic non-Hodgkin lymphoma; settings: read-out: IC50, proliferation; cited from earlier work
[7] = tested on: H460; settings: read-out: IC50, proliferation; cited from earlier work
[8] = tested on: A2780 ovarian cancer cells; settings: read-out: IC50, proliferation; cited from earlier work
[9] = tested on: PC3 prostate cancer; settings: read-out: IC50, proliferation; cited from earlier work
[10] = tested on: HeLa.S3 cervical carcinoma cells; assay: Live/dead cell count, HeLa.S3 cells; assay type: cell-based, human; settings: 48 hrs
Experimental: (§1) Culture Collection; ATCC) were cultured according to ATCC specifications: HeLa.S3 cervical adenocarcinoma, MCF7 breast adenocarcinoma, MDA-MB-231 breast adenocarcinoma (representing triple negative breast cancer), and RPMI 8226 myeloma. The cells were grown in 24 or 12-well cell culture plates. When the cells reached about 60% confluency (surface-growing HeLa.S3,MCF7 and MDA-MB-231) or a density of about 7×10^5 (suspension-growing RPMI 8226), the inhibitors dissolved in DMSO or the solvent (DMSO) diluted in respective culture medium were added and the cells were further cultured for additional 48 hours. […] The final concentration of the solvent was 1% (vol/vol). The number of live and dead cells after the treatment was approximated with calcein AM and ethidium homodimer (LiveDead test, Invitrogen) according to manufacturer's protocol, or by a Trypan Blue exclusion assay. In short, the cells after the treatment were washed three times with PBS and overlaid (surface-growing) or mixed (suspension-growing) with 4 microM calcein AM and 2 microM ethidium homodimer in PBS. Fluorescence of calcein and DNA-bound ethidium homodimer was measured with Fluoroskan Ascent plate reader, at 485 nm (excitation)/538 nm (emission) and 530 nm/619 nm, respectively. The cell counts were approximated using standard curves of live and digitonin-killed cells prepared for each strain. Alternatively, after cell treatment the medium was removed, the surface growing cells were overlaid with Trypan Blue solution, and the colorless (live) and blue-colored (dead) cells were counted under the inverted microscope.

[11] = tested on: T1, human 20S proteasome, ChT-L peptidase; assay: ChT-L peptidase activity of purified human 20S proteasome (Suc-LLVY-MCA); assay type: biochemical
T1 construct: purchased Enzo LifeSciences
Experimental: Human purified proteasome complexes were purchased from Enzo LifeSciences or Boston Biochemicals (19S complex). BODIPY-casein (Invitrogen/Molecular Probes) was used as a model protein substrate, with increasing fluorescence of BODIPY labeled peptide products of degradation monitored for up to 8 hours at 37° C. The peptidase activity of the enzyme was measured as arbitrary intensity units of the released fluorescent group 7-amino-4-methylcoumarin (AMC) from peptide substrates, as described. […] Proteasome substrates, rapamycin, its derivatives, and competing peptides were stocked in DMSO and diluted 100-fold in the reaction mixtures. The Rpt5 and PA200 C-terminal peptides were synthesized in the Departmental Peptide Synthesis Core using the standard SPPS chemistry. To activate the latent 20S proteasome, 0.005% (final concentration) of sodium dodecyl sulfate (SDS) was used. […] The fluorescence of products was monitored every 2 minutes with a Fluoroskan Ascent plate reader. Reaction rates were calculated from smoothed linear segment of kinetic curves using OriginPro 8.6 (OriginLabs, Northampton, Mass.). For the determination of an inhibition type, at least six distinct substrate concentrations and two inhibitor concentrations were used. The kinetic parameters of inhibition were analyzed in terms of the Michaelis-Menten formalism using the enzyme kinetic module of SigmaPlot v.12 (Systat Software, Inc, San Jose, Calif.) to perform the respective calculations. […]
The in vitro assay for testing the ChT-L peptidase activity of the purified human 20S proteasome was performed as described above.

[12] = tested on: MDA-MB-231 (triple-negative breast cancer) cells; assay: Viability/growth of MDA-MB-231 cells; assay type: cell-based, human; settings: Homo sapiens, MDA-MB-231; 24 hours, drug alone; read-out: EC50 (concentration required to exclude 50% of cells)
Experimental: The cells were grown in 24 or 12-well cell culture plates. […] The final concentration of the solvent was 1% (vol/vol). The number of live and dead cells after the treatment was approximated with calcein AM and ethidium homodimer (LiveDead test, Invitrogen) according to manufacturer's protocol, or by a Trypan Blue exclusion assay. In short, the cells after the treatment were washed three times with PBS and overlaid (surface-growing) or mixed (suspension-growing) with 4 microM calcein AM and 2 microM ethidium homodimer in PBS. […] The cell counts were approximated using standard curves of live and digitonin-killed cells prepared for each strain. Alternatively, after cell treatment the medium was removed, the surface growing cells were overlaid with Trypan Blue solution, and the colorless (live) and blue-colored (dead) cells were counted under the inverted microscope.

[13] = tested on: MCF7 breast carcinoma cells; assay: Live/dead cell count, MCF7 cells; assay type: cell-based, human; settings: 100 nM bortezomib
Experimental: as §1, with “In short, the cells after the treatment were washed three times with PBS and overlaid (surface-growing) or mixed (suspension-growing) with 4 microM calcein AM and 2 microM ethidium homodimer in PBS.” left out, “The cell counts were approximated using standard curves of live and digitonin-killed cells prepared for each strain.” left out

[14] = tested on: RPMI 8226 myeloma cells; assay: Live/dead cell count, RPMI 8226 myeloma cells; assay type: cell-based, human; settings: 5 nM, 48 hrs
Experimental: as §1

CC(C)C[C@H](NC(=O)[C@@H](NC(=O)c1cccc(-c2ccccc2)n1)[C@@H](C)O)B(O)O [Delanzomib]
proteasome inhibition in brain tissue [1]: No proteasome inhibition is detected | maximum apoptotic signal versus bortezomib ([1]; caspase-3 and 7 activity in tumor, equiactive doses): 2.5 fold | tumors smaller than control ([2]; twice weekly 3 mg/kg i.v.): approximately 8 times | tumors smaller than control ([2]; twice weekly 10 mg/kg orally): ~12 times | IC50 [3]: 11.3 nM | IC50 [4]: 5.6 nM | IC50 [5]: 3.8 nM | IC50 [6]: 8.2 nM | IC50 [7]: 34.2 nM | IC50 [8]: 13.7 nM | IC50 [9]: 22.2 nM

CC(C)C[C@H](NC(=O)[C@H](Cc1ccccc1)NC(=O)c1cnccn1)B(O)O [bortezomib]
dead cells, of total cell count ([10]; up to 100 nM bortezomib): up to 16% | changes in cell proliferation ([10]; up to 100 nM): did not induce significant changes | proteasome inhibition in brain tissue [1]: No proteasome inhibition is detected | incidence of CR (complete tumor regression) ([1]; at MTD of 1.2 mg/kg intravenously): 50% | maximally tolerated dose (MTD) ([1]; intravenously): 1.2 mg/kg | remaining ChT-L activity ([11]; 5 nM BZ alone): 83% | remaining ChT-L activity ([11]; 50 nM bortezomib alone): 68% | EC50 [12]: 745 nM | live cell count, of the control [13]: about 53% | dead cells [14]: 18% | remaining live cells ([14]; 100% = live cells in DMSO control): 10%
